Laboratory results: PubChem BioAssay (NCI)
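All cell lines were grown in 96-well plates and treated with compound for 48 hours. TGI: concentration producing complete growth inhibition.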

Tests used:
Assay in all cases: NCI-60 cell line screen, 48 h
A498 renal = tested on: A498 renal
DLD-1 colon = tested on: DLD-1 colon
DMS 273 small cell lung = tested on: DMS 273 small cell lung
HOP-92 NSCLC = tested on: HOP-92 NSCLC
LXFL 529 NSCLC = tested on: LXFL 529 NSCLC
OVCAR-4 ovarian = tested on: OVCAR-4 ovarian
SR leukemia = tested on: SR leukemia
BT-549 breast = tested on: BT-549 breast
DU-145 prostate = tested on: DU-145 prostate
HOP-62 NSCLC = tested on: HOP-62 NSCLC
MDA-MB-435 = tested on: MDA-MB-435
MDA-N = tested on: MDA-N
NCI/ADR-RES ovarian = tested on: NCI/ADR-RES ovarian
OVCAR-3 ovarian = tested on: OVCAR-3 ovarian
PC-3 prostate = tested on: PC-3 prostate
T-47D breast = tested on: T-47D breast
UACC-62 melanoma = tested on: UACC-62 melanoma
K-562 leukemia = tested on: K-562 leukemia
NCI-H522 lung = tested on: NCI-H522 lung
KM20L2 colon = tested on: KM20L2 colon

SMILES | TGI (A498 renal) [µM] | TGI (DLD-1 colon) [µM] | TGI (DMS 273 small cell lung) [µM] | TGI (HOP-92 NSCLC) [µM] | TGI (LXFL 529 NSCLC) [µM] | TGI (OVCAR-4 ovarian) [µM] | TGI (SR leukemia) [µM] | TGI (BT-549 breast) [µM] | TGI (DU-145 prostate) [µM] | TGI (HOP-62 NSCLC) [µM] | TGI (MDA-MB-435) [µM] | TGI (MDA-N) [µM] | TGI (NCI/ADR-RES ovarian) [µM] | TGI (OVCAR-3 ovarian) [µM] | TGI (PC-3 prostate) [µM] | TGI (T-47D breast) [µM] | TGI (UACC-62 melanoma) [µM] | TGI (K-562 leukemia) [µM] | TGI (NCI-H522 lung) [µM] | TGI (KM20L2 colon) [µM]
CCCn1cc2c(=O)[nH]c(SC)nc2n1 | > 100 | > 100 | > 100 | > 100 | > 100 | > 100 | > 100 | – | – | – | – | – | – | – | – | – | – | – | – | –
Cc1cn(C2CC(n3cc(Cn4ccc(=O)[nH]c4=O)nn3)C(CO)O2)c(=O)[nH]c1=O (stereo not given) | > 100 | – | – | > 100 | – | > 100 | – | > 100 | > 100 | > 100 | > 100 | > 100 | > 100 | > 100 | > 100 | > 100 | > 100 | – | – | –
CN(C)Cc1cc(Cl)c(O)c(CN(C)C)c1 | > 100 | – | – | > 100 | – | > 100 | > 100 | > 100 | > 100 | > 100 | > 100 | > 100 | > 100 | > 100 | > 100 | > 100 | > 100 | > 100 | > 100 | –
Cc1ncn(-c2ccccc2O)c1C | > 100 | – | – | > 100 | – | > 100 | > 100 | > 100 | > 100 | > 100 | > 100 | > 100 | > 100 | > 100 | > 100 | > 100 | > 100 | > 100 | > 100 | –
C=C(/C=C/C=C(\C)CCC=C(C)C)[C@@H]1CC[C@]2([C@H](CCCO)/C(=C(/C)C=O)CC[C@]2(C)O)[C@@H]1O | – | 38.7 | 27.9 | – | 33.7 | – | 40.9 | – | – | – | – | – | – | – | – | – | – | 30.9 | 33 | > 100
O=C1c2ccccc2N(O)C1(c1ccccc1)C1CCCC=C1N1CCOCC1 (stereo not given) | – | > 100 | > 100 | – | > 100 | – | > 100 | – | – | > 100 | – | – | – | > 100 | – | – | > 100 | > 100 | 73 | > 100
CC(C)(C)c1ccc2c(c1)OP1(Oc3c(Cl)cc(Cl)c4cccnc34)(O2)Oc2ccc(C(C)(C)C)cc2O1 | 28.7 | 18.1 | 18.3 | – | – | 23.3 | – | – | – | 20 | – | – | 24.6 | 13.3 | – | – | 21.1 | > 31.6 | 8.45 | 14.6
